SMILES strings stand for the structures. Structures can show the parent of a compound that is named as a salt.

This experiment concerns transgenic mice that express both human CETP and human apolipoprotein A-1. Briefly: In vivo assay of plasma lipids: elevation of HDL cholesterol. The settings on record: Mus musculus; single oral dose 30 mg/kg; HDL cholesterol in serum at 8 hr after administration; relative to a control; read-out: % HDL cholesterol increase. The text has this: Additional serum lipids can be analyzed by enzymatic methods.
Take `Cc1cc2c(c(C)c1C(F)(F)F)N(Cc1ccc(C(=O)O)cc1)CCC[C@@H]2N(Cc1cc(C(F)(F)F)cc(C(F)(F)F)c1)c1nnn(C)n1` [Example 202, (S)-4-{5-[(3,5-Bis-trifluoromethyl-benzyl)-(2-methyl-2H-tetrazol-5-yl)-amino]-7,9-dimethyl-8-trifluoromethyl-2,3,4,5-tetrahydro-benzo[b]azepin-1-ylmethyl}-benzoic acid]: the change in vivo at 30 mg/kg was 206%.
Regarding `Cc1cc2c(cc1C(F)(F)F)N(CCO)CCC[C@@H]2N(Cc1cc(C(F)(F)F)cc(C(F)(F)F)c1)c1nnn(C)n1` [Example 33, (S)-2-{5-[(3,5-Bis-trifluoromethyl-benzyl)-(2-methyl-2H-tetrazol-5-yl)-amino]-7-methyl-8-trifluoromethyl-2,3,4,5-tetrahydro-benzo[b]azepin-1-yl}-ethanol], the change in vivo at 30 mg/kg was 354%.
As to `Cc1cc2c(cc1C(F)(F)F)N(Cc1ccc(O)c(C(=O)O)c1)CCC[C@@H]2N(Cc1cc(C(F)(F)F)cc(C(F)(F)F)c1)c1nnn(C)n1` [Example 141, (S)-5-{5-[(3,5-Bis-trifluoromethyl-benzyl)-(2-methyl-2H-tetrazol-5-yl)-amino]-7-methyl-8-trifluoromethyl-2,3,4,5-tetrahydro-benzo[b]azepin-1-ylmethyl}-2-hydroxy-benzoic acid], the change in vivo at 30 mg/kg worked out at 74%.
For `Cc1cc2c(cc1C(F)(F)F)N(CC1CCCC1)CCC[C@@H]2N(Cc1cc(C(F)(F)F)cc(C(F)(F)F)c1)c1nnn(CCO)n1` [Example 27, (S)-2-{5-[(3,5-Bis-trifluoromethyl-benzyl)-(1-cyclopentylmethyl-7-methyl-8-trifluoromethyl-2,3,4,5-tetrahydro-1H-benzo[b]azepin-5-yl)-amino]-tetrazol-2-yl}-ethanol] the value was 128%; for `Cc1cc2c(c(C)c1C(F)(F)F)N(CC1CC1)CCC[C@@H]2N(Cc1cc(C(F)(F)F)cc(C(F)(F)F)c1)c1nnn(C)n1` [Example 148, (S)-(3,5-Bis-trifluoromethyl-benzyl)-(1-cyclopropylmethyl-7,9-dimethyl-8-trifluoromethyl-2,3,4,5-tetrahydro-1H-benzo[b]azepin-5-yl)-(2-methyl-2H-tetrazol-5-yl)-amine], 224%; for `Cc1cc2c(cc1C(F)(F)F)N(C(=O)OC1CCCC1)CCC[C@@H]2N(Cc1cc(C(F)(F)F)cc(C(F)(F)F)c1)c1nnn(C)n1` [Example 20, (S)-5-[(3,5-Bis-trifluoromethyl-benzyl)-(2-methyl-2H-tetrazol-5-yl)-amino]-7-methyl-8-trifluoromethyl-2,3,4,5-tetrahydro-benzo[b]azepine-1-carboxylic acid cyclopentyl ester], 72%.
`Cc1cc2c(cc1C(F)(F)F)N(C(=O)OC(C)C)CCC[C@@H]2N(Cc1cc(C(F)(F)F)cc(C(F)(F)F)c1)c1nnn(C)n1` [Example 16, (S)-5-[(3,5-Bis-trifluoromethyl-benzyl)-(2-methyl-2H-tetrazol-5-yl)-amino]-7-methyl-8-trifluoromethyl-2,3,4,5-tetrahydro-benzo[b]azepine-1-carboxylic acid isopropyl ester]: the change in vivo at 30 mg/kg is 82%.
With `Cc1cc(N(Cc2cc(C(F)(F)F)cc(C(F)(F)F)c2)[C@H]2CCCN(C[C@H]3CC[C@H](CC(=O)O)CC3)c3cc(C(F)(F)F)c(C)cc32)on1` [Example 94, (4-{5-[(3,5-Bis-trifluoromethyl-benzyl)-(3-methyl-isoxazol-5-yl)-amino]-7-methyl-8-trifluoromethyl-2,3,4,5-tetrahydro-benzo[b]azepin-1-ylmethyl}-cyclohexyl)-acetic acid], the change in vivo at 30 mg/kg was found to be 154%.
Consider `CCN1CCC[C@H](N(Cc2cc(C(F)(F)F)cc(C(F)(F)F)c2)c2nnn(C)n2)c2cc(C)c(C(F)(F)F)cc21` [Example 30, (S)-(3,5-Bis-trifluoromethyl-benzyl)-(1-ethyl-7-methyl-8-trifluoromethyl-2,3,4,5-tetrahydro-1H-benzo[b]azepin-5-yl)-(2-methyl-2H-tetrazol-5-yl)-amine], for which the change in vivo at 30 mg/kg was determined as 54%.
`CCC(OC(=O)N1CCCC(N(Cc2cc(C(F)(F)F)cc(C(F)(F)F)c2)c2nnn(C)n2)c2cc(C)c(C(F)(F)F)cc21)C(C)C` (racemic) [Example 25, (+/−)-5-[(3,5-Bis-trifluoromethyl-benzyl)-(2-methyl-2H-tetrazol-5-yl)-amino]-7-methyl-8-trifluoromethyl-2,3,4,5-tetrahydro-benzo[b]azepine-1-carboxylic acid 1-ethyl-2-methyl-propyl ester]: the change in vivo at 30 mg/kg turned out to be 142%.
`Cc1c2c(cc3c1N(CC1CCCC1)CCC[C@@H]3N(Cc1cc(C(F)(F)F)cc(C(F)(F)F)c1)c1nnn(C)n1)COC2` [Example 170, (S)-(3,5-Bis-trifluoromethyl-benzyl)-(5-cyclopentylmethyl-4-methyl-3,5,6,7,8,9-hexahydro-1H-2-oxa-5-aza-cyclohepta[f]inden-9-yl)-(2-methyl-2H-tetrazol-5-yl)-amine]: the change in vivo at 30 mg/kg amounted to 95%.
As for `Cn1nnc(N(Cc2cc(C(F)(F)F)cc(C(F)(F)F)c2)[C@H]2CCCN(CC3CCCC3)c3cc4c(cc32)COC4)n1` [Example 73, (S)-(3,5-Bis-trifluoromethyl-benzyl)-(5-cyclopentylmethyl-3,5,6,7,8,9-hexahydro-1H-2-oxa-5-aza-cyclohepta[f]inden-9-yl)-(2-methyl-2H-tetrazol-5-yl)-amine], the change in vivo at 30 mg/kg was found to be 374%.
For `Cc1cc2c(c(C)c1C(F)(F)F)N(Cc1ccncc1)CCC[C@@H]2N(Cc1cc(C(F)(F)F)cc(C(F)(F)F)c1)c1nnn(C)n1` [Example 151, (S)-(3,5-Bis-trifluoromethyl-benzyl)-(7,9-dimethyl-1-pyridin-4-ylmethyl-8-trifluoromethyl-2,3,4,5-tetrahydro-1H-benzo[b]azepin-5-yl)-(2-methyl-2H-tetrazol-5-yl)-amine] the value was 165%.
Next, `Cc1c2c(cc3c1N(Cc1ccc(C(=O)O)cc1)CCC[C@@H]3N(Cc1cc(C(F)(F)F)cc(C(F)(F)F)c1)c1nnn(C)n1)COC2` [Example 166, (S)-4-{9-[(3,5-Bis-trifluoromethyl-benzyl)-(2-methyl-2H-tetrazol-5-yl)-amino]-4-methyl-1,3,6,7,8,9-hexahydro-2-oxa-5-aza-cyclohepta[f]inden-5-ylmethyl}-benzoic acid]: 102%; `Cc1cc2c(cc1C(F)(F)F)N(C(=O)OC(C)(C)C)CCC[C@@H]2N(Cc1cc(Cl)cc(C(F)(F)F)c1)c1nnn(C)n1` [Example 185, (S)-5-[(3-Chloro-5-trifluoromethyl-benzyl)-(2-methyl-2H-tetrazol-5-yl)-amino]-7-methyl-8-trifluoromethyl-2,3,4,5-tetrahydro-benzo[b]azepine-1-carboxylic acid tert-butyl ester]: 155%; `Cc1cc2c(cc1C(F)(F)F)N(CC1CCC(CC(=O)O)CC1)CCCC2N(Cc1cc(C(F)(F)F)cc(C(F)(F)F)c1)c1nnn(C)n1` (stereo not shown) [Example 31, (4-{5-[(3,5-Bis-trifluoromethyl-benzyl)-(2-methyl-2H-tetrazol-5-yl)-amino]-7-methyl-8-trifluoromethyl-2,3,4,5-tetrahydro-benzo[b]azepin-1-ylmethyl}-cyclohexyl)-acetic acid]: 114%.
Consider `Cc1cc2c(cc1C(F)(F)F)N(Cc1ccncc1)CCC[C@@H]2N(Cc1cc(Cl)cc(C(F)(F)F)c1)c1nnn(C)n1` [Example 191, (S)-(3-Chloro-5-trifluoromethyl-benzyl)-(7-methyl-1-pyridin-4-ylmethyl-8-trifluoromethyl-2,3,4,5-tetrahydro-1H-benzo[b]azepin-5-yl)-(2-methyl-2H-tetrazol-5-yl)-amine], for which the change in vivo at 30 mg/kg stood at 91%.
As for `Cc1cc2c(c(C)c1C(F)(F)F)N(CCC(C)(C)CC(=O)O)CCC[C@@H]2N(Cc1cc(C(F)(F)F)cc(C(F)(F)F)c1)c1nnn(C)n1` [Example 154, (S)-5-{5-[(3,5-Bis-trifluoromethyl-benzyl)-(2-methyl-2H-tetrazol-5-yl)-amino]-7,9-dimethyl-8-trifluoromethyl-2,3,4,5-tetrahydro-benzo[b]azepin-1-yl}-3,3-dimethyl-pentanoic acid], the change in vivo at 30 mg/kg came to 99%.
Take `Cc1cc2c(cc1C(F)(F)F)N(CC1CC1)CCC[C@@H]2N(Cc1cc(Cl)cc(C(F)(F)F)c1)c1nnn(C)n1` [Example 196, (S)-(3-Chloro-5-trifluoromethyl-benzyl)-(1-cyclopropylmethyl-7-methyl-8-trifluoromethyl-2,3,4,5-tetrahydro-1H-benzo[b]azepin-5-yl)-(2-methyl-2H-tetrazol-5-yl)-amine]: the change in vivo at 30 mg/kg stood at 126%.
In the case of `Cc1cc2c(cc1C(F)(F)F)N(C(=O)OC(C)(C)C)CCC[C@@H]2N(Cc1cc(C(F)(F)F)cc(C(F)(F)F)c1)c1nnn(C)n1` [Example 17, (S)-5-[(3,5-Bis-trifluoromethyl-benzyl)-(2-methyl-2H-tetrazol-5-yl)-amino]-7-methyl-8-trifluoromethyl-2,3,4,5-tetrahydro-benzo[b]azepine-1-carboxylic acid tert-butyl ester], the change in vivo at 30 mg/kg was determined as 73%.
For the compound `Cc1cc2c(cc1C(F)(F)F)N(Cc1nccs1)CCC[C@@H]2N(Cc1cc(C(F)(F)F)cc(C(F)(F)F)c1)c1nnn(CCN)n1` [Example 129, (S)-[2-(2-Amino-ethyl)-2H-tetrazol-5-yl]-(3,5-bis-trifluoromethyl-benzyl)-(7-methyl-1-thiazol-2-ylmethyl-8-trifluoromethyl-2,3,4,5-tetrahydro-1H-benzo[b]azepin-5-yl)-amine], the change in vivo at 30 mg/kg amounted to 92%.
Consider `Cc1cc2c(cc1C(F)(F)F)N(Cc1cncc(C(=O)O)c1)CCC[C@@H]2N(Cc1cc(C(F)(F)F)cc(C(F)(F)F)c1)c1nnn(C)n1` [Example 142, (S)-5-{5-[(3,5-Bis-trifluoromethyl-benzyl)-(2-methyl-2H-tetrazol-5-yl)-amino]-7-methyl-8-trifluoromethyl-2,3,4,5-tetrahydro-benzo[b]azepin-1-ylmethyl}-nicotinic acid hydrochloride], for which the change in vivo at 30 mg/kg came out at 90%.
